Results from patent publication USRE35224E (The Board of Trustees of the Leland Stanford Junior …, priority 1993, dated 1996).
Entries after “also recorded” stand apart in the source; their conditions may differ. Where a name gives a salt, the structure may show the parent alone.

Columns and labels:
[1] = biological target: T1, natural suppressor cells (Mus musculus, UniProt P97292); experiment: Effects of histamine derivatives on cAMP accumulation in natural suppressor (NS) cells; type: cell-based, mouse (BALB/c); conditions: for Relative potency: histamine = 1.0; for Activity / potency on NS cells (in words): cAMP accumulation, H2 activity; for Maximal efficacy on cAMP concentrations (in words): compared with histamine
T1 construct: cAMP accumulation
T1 sequence (P97292 whole entry): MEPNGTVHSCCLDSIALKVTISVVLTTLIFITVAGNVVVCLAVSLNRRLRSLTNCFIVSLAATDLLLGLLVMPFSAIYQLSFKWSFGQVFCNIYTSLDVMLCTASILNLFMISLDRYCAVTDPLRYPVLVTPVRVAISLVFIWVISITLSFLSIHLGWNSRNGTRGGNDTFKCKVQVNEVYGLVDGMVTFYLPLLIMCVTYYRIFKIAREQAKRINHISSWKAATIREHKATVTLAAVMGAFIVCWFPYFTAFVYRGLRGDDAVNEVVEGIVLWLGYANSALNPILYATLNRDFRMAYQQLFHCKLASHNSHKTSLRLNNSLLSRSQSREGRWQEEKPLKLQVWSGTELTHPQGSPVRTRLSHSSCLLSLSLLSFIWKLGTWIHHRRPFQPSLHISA
Text: NS cells were obtained and cultured as follows: four-to six-month old BALB/c mice were anesthetized with pentobarbital and all major lymphoid organs, including all major lymph nodes, the spleen, and the thymus, were irradiated as described by Slavin et al., Science (1976) 193:1252. The skull, lungs, and hind legs were shielded with lead. The mice were given 200 rad per day, 5 times per week, to a total dose of 3400 rad. Irradiation was delivered from a single 250 kV (15A) source (Philips Medical Systems, Inc., Shelton, CT). The mice were killed between 5 and 15 days after completion of the TLI. Spleens were removed aseptically and single cell suspensions were prepared by gently pressing the spleen fragments through a nylon fiber mesh (Tetko, Inc., Elmsford, NY). These spleen cells were fed daily with tissue culture medium containing RPMI 1640, 10% FCS, 2 mM glutamine, 10% CAS and 5×10^-5 M 2-mercaptoethanol and were later cloned by limiting dilutior, The clones were maintained in RPMI 1640 medium with 10% PCS and 10% CAS.
NS cells were centrifuged and resuspended at b 1×10^6 /ml in PBS and incubated at 37° C. for 10 min with 10 mM IBMX at a final concentration at 20 μM. Alternatively the cells were resuspended in 5 mM HEPES and 1 mM MgSO4 and after five minutes were disrupted in a Dounce homogenizer. Broken cells were centrifuged at 20,000 g […] for thirty minutes and supernatant was discarded. The pellet was resuspended in Tris (pH 7.5), 5 mM HEPES and 1 mM MgSO4 and incubated with IBMX.
Cold TCA (100%) was added to a final concentration of 8% and the tubes were stored in ice. Samples were extracted 3 times with 3 volumes of ether. The ether was evaporated at 40° C. in a water bath for approximately 45 min. Acetylation of both experimental samples and cAMP standards were performed by addition of 10 μl of a mixture of triethylamine and acetic anhydride (2:1). […] The radio-immunoassay was performed as reported previously by Khan et al., J. Clin. Invest. (1985) 75:1578.

[2] = biological target: T2, guinea pig myocardial adenylate cyclase (Cavia porcellus, UniProt P47747); experiment: Guinea pig myocardial adenylate cyclase assay; type: biochemical; conditions: adenylate cyclase
T2 construct: histamine-stimulated adenylate cyclase with GPP(NH)P
T2 sequence (P47747 whole entry): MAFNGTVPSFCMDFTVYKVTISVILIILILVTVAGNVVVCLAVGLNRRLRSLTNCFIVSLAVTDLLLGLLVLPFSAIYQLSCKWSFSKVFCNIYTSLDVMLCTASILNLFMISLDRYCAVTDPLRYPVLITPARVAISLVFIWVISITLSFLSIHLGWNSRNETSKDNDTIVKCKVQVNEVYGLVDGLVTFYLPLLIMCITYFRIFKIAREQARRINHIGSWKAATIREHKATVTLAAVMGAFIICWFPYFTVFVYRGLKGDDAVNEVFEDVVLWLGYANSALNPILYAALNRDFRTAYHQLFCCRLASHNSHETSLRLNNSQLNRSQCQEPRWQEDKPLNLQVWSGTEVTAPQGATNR
Procedure: Male, partly albino, guinea pigs (600 g average weight) were killed by a blow to the head. The hearts were excised and immediately immersed in ice cold oxygenated Tyrode's solution. Both ventricles were dissected free and placed in 250 mM sucrose, 5 mM Tris, 1 mM EDTA, pH 7.45. The tissue was minced with a screen, and was then homogenized with 3 consecutive 5 sec bursts of a Polytron (Brinkman Instruments, Inc., Westbury, NY) at a setting of 11. The homogenate was then centrifuged at 1085×g for 20 min. The pellet was resuspended and recentrifuged twice. The final suspension was filtered through four layers of gauze. Adenylate cyclase was assayed by the method of Salomon et al., Anal. Biochem. (1974) 58:541 as modified by Bristow et al., Mol Pharmacol. (1982) 21:671. Enzyme protein (75-250 μg) was added to a reaction mixture that consisted of 0.1 mM Mg ATP, 0.5 mM MgCl2, 10 mM phosphocreatine, 14.5 μg of creatine kinase (1381 U/mg), 100 mM
The final reaction volume before addition of α-^32 P!ATP was 225 μl. Reaction tubes were stored in cryogenic racks (Kryorack, Isolab, Inc. Akron, OH) at 0° C.
The reaction mixture was pre-warmed in a shaking water bath at 30° C. for 5 min after which 25 μl ([…]) of α-^32 P!ATP (250-500 Ci/mM) was added to label the ATP pool. The assay time was 20 min, the time needed for measurable stimulation of adenylate cyclase. The ^32 P reaction was stopped by the addition of 750 μl of 1% sodium dodecysulfate. ^32 P-labelled cyclic AMP was then isolated by the dual Dowex-alumina column method of Salomon et al., supra. α-^32 P!ATP (New England Nuclear Corporation, Boston, MA) that gave reagent blanks of 50 cpm was purified on Dowex columns as described by Salomon et al., supra.

[3] = biological target: T1, natural suppressor cells; experiment: Blocking histamine effects in natural suppressor cells (H2 antagonism); type: cell-based, mouse (BALB/c); conditions: for Antagonism by cimetidine (H2 antagonist) of cAMP accumulation: cimetidine 10^-5 M, compounds 6-8 at 10^-4 M, 9 at 10^-7 M
Procedure: This assay was carried out in the same fashion as already described for the derivatives except that ED-90 concentration of the test compound was chosen. Cimetidine was added at the same time in concentrations ranging from 10^-4 to 10^-8 M. Alternatively, 10^-6 M cimetidine was added to 10^-3 -10^-8 M concentration of agonists.

Row | SMILES | Relative potency ([1]; NS cells) | Activity / potency on NS cells (in words) [1] | Activity on guinea pig myocardium (in words) [2] | Antagonism by cimetidine (H2 antagonist) of cAMP accumulation [3] | other results
1 | Cc1ccc(NC(=O)CCCC(C)NCCc2c[nH]cn2)cc1 (stereo not shown) [Compound 6] | 3.8 × 10^3 | very potent in NS cell cAMP assays | strikingly impotent in guinea pig myocardium; also recorded: less potent than histamine on the myocardium; also recorded: very weak effects; also recorded: significantly different in their activity | could not be completely inhibited by the H2 antagonist | Potency or activity relative to histamine ([1]; NS cells): 3000 fold; Potency relative to histamine (in words) ([1]; NS cells): three orders of magnitude more potent than histamine; Activity / potency on NS cells (in words) ([1]; listed as compound 6): widely divergent activity; also recorded: retained H2 activity; Activity on guinea pig myocardium (in words) ([2]; listed as compound 6): same rank order of potency found in the NS cells
2 | CN(C)CCCSC(=N)N [Dimaprit, reference compound] |  | had H2 effects on the NS cells |  |  | EC50 ([1]; NS cells): 60 µM; Maximal efficacy on cAMP concentrations (in words) ([1]; NS cells): did not produce the same maximal effects as histamine on cAMP concentrations; Shift of dose response curve by cimetidine ([3]; 10^-3 M to 10^-8 M agonist, 10^-6 M cimetidine): parallel shifts to the right
3 | CCCCCCNCCc1c[nH]cn1 [Compound 1, 1-2'-(4"-Imidazo)ethylamino!hexane, Dihydrochloride] | 0.5 × 10^1 |  |  | not inhibited by the H2 antagonist | Potency relative to histamine (in words) ([1]; NS cells, Dihydrochloride): about equipotent to histamine; also recorded: equipotent to histamine on the lymphocyte accumulation of cyclic AMP; Activity on guinea pig myocardium (in words) ([2]; Dihydrochloride): completely inactive; also recorded: little or no effect on the myocardium
4 | Cc1ccc(NC(=O)CCCCCC(C)NCCc2c[nH]cn2)cc1 (stereo not shown) [Compound 8] | 0.2 × 10^1 | widely divergent activity | very weak effects |  | Activity on guinea pig myocardium (in words) ([2]; listed as compound 8): same rank order of potency found in the NS cells
5 | Cc1ccc(NC(=O)CCCCNCCc2c[nH]cn2)cc1 [Compound 5, 5-2'-(4"-Imidazo)ethylamino!pentanoic Acid p-Toluide, Dihydrochloride] | 0.2 × 10^1 |  |  |  | Activity on guinea pig myocardium (in words) ([2]; Dihydrochloride): significantly different in their activity
6 | CC(CCCCC(=O)Nc1ccc(C(F)(F)F)cc1)NCCc1c[nH]cn1 (stereo not shown) [Compound 9] | 4.3 × 10^4 | very potent in NS cell cAMP assays | strikingly impotent in guinea pig myocardium | could not be completely inhibited by the H2 antagonist | Potency or activity relative to histamine ([1]; NS cells): 40,000 fold; Potency relative to histamine ([1]; NS cells): 4 orders of magnitude; Maximal efficacy on cAMP concentrations (in words) ([1]; NS cells): lost a significant amount of maximal efficacy; Activity / potency on NS cells (in words) ([1]; listed as compound 9): most potent of this series on H2 receptors; also recorded: retained H2 activity; Activity on guinea pig myocardium (in words) ([2]; listed as compound 9): did not stimulate adenylate cyclase in guinea pig myocardium
7 | Cc1ccc(NC(=O)CCCCC(C)NCCc2c[nH]cn2)cc1 (stereo not shown) [Compound 7, 6-2'-(4"-Imidazolyl)ethylamino!heptanoic Acid p-Toluide] | 0.3 × 10^1 | widely divergent activity | same rank order of potency found in the NS cells |  | Potency relative to histamine (in words) ([1]; NS cells): three times as potent as histamine
8 | CNC(=O)CNC(=O)[C@H](Cc1ccc(NC(=O)CCCCC(C)NCCc2c[nH]cn2)cc1)NC(=O)OC(C)(C)C (stereo partly shown) [Compound 12] | Inactive | impotent as H2 receptor agonists on NS cells | stimulated guinea pig myocardium |  | Activity / potency on NS cells (in words) ([1]; listed as compound 12): Neither an aliphatic amide derivative of histamine (compound 3) nor the dipeptide conjugate of histamine (compound 12) altered intracellular cAMP; also recorded: inactive on NS cells; Blockade of histamine mediated accumulation of cAMP ([3]; NS cells): failed to block histamine mediated accumulation of cAMP
